Test results as given in patent US20260232767A1, “INTERLEUKIN-23 RECEPTOR ANTAGONIST PEPTIDES FOR USE IN THE TREATMENT OF PSORIASIS” (Janssen Pharmaceutica NV, priority 2023, published 2026).

System: subjects with moderate-to-severe plaque psoriasis
Assay: PSSD symptom and sign scores, Example 2
Type: in vivo, human
Settings: for Change from Baseline in PSSD Sign Score, LSMean / Change from Baseline in PSSD Symptom Score, LSMean: MMRM

CC(=O)NCCCC[C@@H]1NC(=O)[C@H](Cc2c[nH]c3c(C)cccc23)NC(=O)[C@H]([C@@H](C)O)NC(=O)[C@H](CC(N)=O)NC(=O)[C@@H](NC(C)=O)C(C)(C)SSC(C)(C)[C@@H](C(=O)N[C@@H](Cc2ccc(OCCN)cc2)C(=O)N[C@@H](Cc2ccc3ccccc3c2)C(=O)NC2(C(=O)N[C@@H](CCC(=O)O)C(=O)N[C@@H](CC(N)=O)C(=O)N[C@@H](Cc3cccnc3)C(=O)N(C)CC(N)=O)CCOCC2)NC1=O [IL-23 receptor antagonist peptide, Ac-[Pen]*-N-T-[W(7-Me)]-[Lys(Ac)]-[Pen]*-Phe[4-(2-aminoethoxy)]-[2-Nal]-[THP]-E-N-[3-Pal]-Sarc-NH2 (*[Pen]-[Pen]* formdisulfidebond)]
Change from Baseline in PSSD Symptom Score, Mean (Week 32, 100 mg QD): −28.0
Change from Baseline in PSSD Symptom Score, Median (Week 32, 100 mg QD): −25.0
Subjects Achieving PSSD Sign Score 0 (%) (Week 32, 100 mg QD, Baseline Sign Score ≥1, N=43): (14.0%)
Subjects Achieving PSSD Symptom Score 0 (%) (Week 32, 100 mg QD, Baseline Symptom Score ≥1, N=43): (18.6%)
Change from Baseline in PSSD Sign Score, LSMean (Week 32, 100 mg QD): −45.8
Change from Baseline in PSSD Symptom Score, LSMean (Week 32, 100 mg QD): −36.4
Change from Baseline in PSSD Sign Score, Mean (Week 32, Placebo → 100 mg QD): −42.3
Change from Baseline in PSSD Sign Score, Median (Week 32, Placebo → 100 mg QD): −45.0
Change from Baseline in PSSD Symptom Score, Mean (Week 32, Placebo → 100 mg QD): −31.9
Change from Baseline in PSSD Symptom Score, Median (Week 32, Placebo → 100 mg QD): −36.0
Subjects Achieving PSSD Sign Score 0 (%) (Week 32, Placebo → 100 mg QD, Baseline Sign Score ≥1, crossed-over subjects only): (17.1%)
Subjects Achieving PSSD Symptom Score 0 (%) (Week 32, Placebo → 100 mg QD, Baseline Symptom Score ≥1, crossed-over subjects only): (20.0%)
Change from Baseline in PSSD Sign Score, LSMean (Week 32, Placebo → 100 mg QD): −41.8
Change from Baseline in PSSD Symptom Score, LSMean (Week 32, Placebo → 100 mg QD): −33.9
Change from Baseline in PSSD Sign Score, Mean (Week 40, 25 mg BID): −34.1
Change from Baseline in PSSD Sign Score, Median (Week 40, 25 mg BID): −34.0
Change from Baseline in PSSD Symptom Score, Mean (Week 40, 25 mg BID): −30.0
Change from Baseline in PSSD Symptom Score, Median (Week 40, 25 mg BID): −32.0
Subjects Achieving PSSD Sign Score 0 (%) (Week 40, 25 mg BID, Baseline Sign Score ≥1, N=41): (4.9%)
Subjects Achieving PSSD Symptom Score 0 (%) (Week 40, 25 mg BID, Baseline Symptom Score ≥1, N=41): (9.8%)
Change from Baseline in PSSD Sign Score, LSMean (Week 40, 25 mg BID): −34.9
Change from Baseline in PSSD Symptom Score, LSMean (Week 40, 25 mg BID): −30.5
Change from Baseline in PSSD Sign Score, Mean (Week 40, 25 mg QD): −36.9
Change from Baseline in PSSD Sign Score, Median (Week 40, 25 mg QD): −36.0
Change from Baseline in PSSD Symptom Score, Mean (Week 40, 25 mg QD): −33.9
Change from Baseline in PSSD Symptom Score, Median (Week 40, 25 mg QD): −35.0
Subjects Achieving PSSD Sign Score 0 (%) (Week 40, 25 mg QD, Baseline Sign Score ≥1, N=43): (11.6%)
Subjects Achieving PSSD Symptom Score 0 (%) (Week 40, 25 mg QD, Baseline Symptom Score ≥1, N=43): (20.9%)
Change from Baseline in PSSD Sign Score, LSMean (Week 40, 25 mg QD): −29.4
Change from Baseline in PSSD Symptom Score, LSMean (Week 40, 25 mg QD): −25.9
Change from Baseline in PSSD Sign Score, Mean (Week 40, 50 mg QD): −39.6
Change from Baseline in PSSD Sign Score, Median (Week 40, 50 mg QD): −42.0
Change from Baseline in PSSD Symptom Score, Mean (Week 40, 50 mg QD): −34.9
Change from Baseline in PSSD Symptom Score, Median (Week 40, 50 mg QD): −32.0
Subjects Achieving PSSD Sign Score 0 (%) (Week 40, 50 mg QD, Baseline Sign Score ≥1, N=43): (9.3%)
Subjects Achieving PSSD Symptom Score 0 (%) (Week 40, 50 mg QD, Baseline Symptom Score ≥1, N=42): (23.8%)
Change from Baseline in PSSD Sign Score, LSMean (Week 40, 50 mg QD): −39.5
Change from Baseline in PSSD Symptom Score, LSMean (Week 40, 50 mg QD): −32.7
Change from Baseline in PSSD Sign Score, Mean (Week 40, 100 mg BID): −52.4
Change from Baseline in PSSD Sign Score, Median (Week 40, 100 mg BID): −54.5
Change from Baseline in PSSD Symptom Score, Mean (Week 40, 100 mg BID): −47.5
Change from Baseline in PSSD Symptom Score, Median (Week 40, 100 mg BID): −49.5
Subjects Achieving PSSD Sign Score 0 (%) (Week 40, 100 mg BID, Baseline Sign Score ≥1, N=42): (19.0%)
Subjects Achieving PSSD Symptom Score 0 (%) (Week 40, 100 mg BID, Baseline Symptom Score ≥1, N=42): (28.6%)
Change from Baseline in PSSD Sign Score, LSMean (Week 40, 100 mg BID): −51.4
Change from Baseline in PSSD Symptom Score, LSMean (Week 40, 100 mg BID): −43.5
Change from Baseline in PSSD Sign Score, Mean (Week 40, 100 mg QD): −42.4
Change from Baseline in PSSD Sign Score, Median (Week 40, 100 mg QD): −43.0
Change from Baseline in PSSD Symptom Score, Mean (Week 40, 100 mg QD): −28.2
Change from Baseline in PSSD Symptom Score, Median (Week 40, 100 mg QD): −24.0
Subjects Achieving PSSD Sign Score 0 (%) (Week 40, 100 mg QD, Baseline Sign Score ≥1, N=43): (18.6%)
Subjects Achieving PSSD Symptom Score 0 (%) (Week 40, 100 mg QD, Baseline Symptom Score ≥1, N=43): (18.6%)
Change from Baseline in PSSD Sign Score, LSMean (Week 40, 100 mg QD): −45.6
Change from Baseline in PSSD Symptom Score, LSMean (Week 40, 100 mg QD): −36.1
Change from Baseline in PSSD Sign Score, Mean (Week 40, Placebo → 100 mg QD): −36.6
Change from Baseline in PSSD Sign Score, Median (Week 40, Placebo → 100 mg QD): −48.5
Change from Baseline in PSSD Symptom Score, Mean (Week 40, Placebo → 100 mg QD): −23.8
Change from Baseline in PSSD Symptom Score, Median (Week 40, Placebo → 100 mg QD): −24.0
Subjects Achieving PSSD Sign Score 0 (%) (Week 40, Placebo → 100 mg QD, Baseline Sign Score ≥1, crossed-over subjects only): (14.3%)
Subjects Achieving PSSD Symptom Score 0 (%) (Week 40, Placebo → 100 mg QD, Baseline Symptom Score ≥1, crossed-over subjects only): (25.7%)
Change from Baseline in PSSD Sign Score, LSMean (Week 40, Placebo → 100 mg QD): −36.9
Change from Baseline in PSSD Symptom Score, LSMean (Week 40, Placebo → 100 mg QD): −27.0
Change from Baseline in PSSD Sign Score, Mean (Week 52, 25 mg BID): −36.6
Change from Baseline in PSSD Sign Score, Median (Week 52, 25 mg BID): −38.5
Change from Baseline in PSSD Symptom Score, Mean (Week 52, 25 mg BID): −31.2
Change from Baseline in PSSD Symptom Score, Median (Week 52, 25 mg BID): −27.0
Subjects Achieving PSSD Sign Score 0 (%) (Week 52, 25 mg BID, Baseline Sign Score ≥1, N=41): (12.2%)
Subjects Achieving PSSD Symptom Score 0 (%) (Week 52, 25 mg BID, Baseline Symptom Score ≥1, N=41): (17.1%)
Change from Baseline in PSSD Sign Score, LSMean (Week 52, 25 mg BID): −37.2
Change from Baseline in PSSD Symptom Score, LSMean (Week 52, 25 mg BID): −31.4
Change from Baseline in PSSD Sign Score, Mean (Week 52, 25 mg QD): −35.2
Change from Baseline in PSSD Sign Score, Median (Week 52, 25 mg QD): −32.5
Change from Baseline in PSSD Symptom Score, Mean (Week 52, 25 mg QD): −30.1
Change from Baseline in PSSD Symptom Score, Median (Week 52, 25 mg QD): −35.0
Subjects Achieving PSSD Sign Score 0 (%) (Week 52, 25 mg QD, Baseline Sign Score ≥1, N=43): (16.3%)
Subjects Achieving PSSD Symptom Score 0 (%) (Week 52, 25 mg QD, Baseline Symptom Score ≥1, N=43): (18.6%)
Change from Baseline in PSSD Sign Score, LSMean (Week 52, 25 mg QD): −27.9
Change from Baseline in PSSD Symptom Score, LSMean (Week 52, 25 mg QD): −22.3
Change from Baseline in PSSD Sign Score, Mean (Week 52, 50 mg QD): −39.2
Change from Baseline in PSSD Sign Score, Median (Week 52, 50 mg QD): −45.0
Change from Baseline in PSSD Symptom Score, Mean (Week 52, 50 mg QD): −35.2
Change from Baseline in PSSD Symptom Score, Median (Week 52, 50 mg QD): −34.0
Subjects Achieving PSSD Sign Score 0 (%) (Week 52, 50 mg QD, Baseline Sign Score ≥1, N=43): (11.6%)
Subjects Achieving PSSD Symptom Score 0 (%) (Week 52, 50 mg QD, Baseline Symptom Score ≥1, N=42): (21.4%)
Change from Baseline in PSSD Sign Score, LSMean (Week 52, 50 mg QD): −39.0
Change from Baseline in PSSD Symptom Score, LSMean (Week 52, 50 mg QD): −33.0
Change from Baseline in PSSD Sign Score, Mean (Week 52, 100 mg BID): −53.1
Change from Baseline in PSSD Sign Score, Median (Week 52, 100 mg BID): −55.0
Change from Baseline in PSSD Symptom Score, Mean (Week 52, 100 mg BID): −47.7
Change from Baseline in PSSD Symptom Score, Median (Week 52, 100 mg BID): −53.0
Subjects Achieving PSSD Sign Score 0 (%) (Week 52, 100 mg BID, Baseline Sign Score ≥1, N=42): (16.7%)
Subjects Achieving PSSD Symptom Score 0 (%) (Week 52, 100 mg BID, Baseline Symptom Score ≥1, N=42): (26.2%)
Change from Baseline in PSSD Sign Score, LSMean (Week 52, 100 mg BID): −51.9
Change from Baseline in PSSD Symptom Score, LSMean (Week 52, 100 mg BID): −44.0
Change from Baseline in PSSD Sign Score, Mean (Week 52, 100 mg QD): −43.1
Change from Baseline in PSSD Sign Score, Median (Week 52, 100 mg QD): −43.0
Change from Baseline in PSSD Symptom Score, Mean (Week 52, 100 mg QD): −29.4
Change from Baseline in PSSD Symptom Score, Median (Week 52, 100 mg QD): −28.0
Subjects Achieving PSSD Sign Score 0 (%) (Week 52, 100 mg QD, Baseline Sign Score ≥1, N=43): (14.0%)
Subjects Achieving PSSD Symptom Score 0 (%) (Week 52, 100 mg QD, Baseline Symptom Score ≥1, N=43): (30.2%)
Change from Baseline in PSSD Sign Score, LSMean (Week 52, 100 mg QD): −45.8
Change from Baseline in PSSD Symptom Score, LSMean (Week 52, 100 mg QD): −36.5
Change from Baseline in PSSD Sign Score, Mean (Week 52, Placebo → 100 mg QD): −42.8
Change from Baseline in PSSD Sign Score, Median (Week 52, Placebo → 100 mg QD): −48.5
Change from Baseline in PSSD Symptom Score, Mean (Week 52, Placebo → 100 mg QD): −29.5
Change from Baseline in PSSD Symptom Score, Median (Week 52, Placebo → 100 mg QD): −30.0
Subjects Achieving PSSD Sign Score 0 (%) (Week 52, Placebo → 100 mg QD, Baseline Sign Score ≥1, crossed-over subjects only): (22.9%)
Subjects Achieving PSSD Symptom Score 0 (%) (Week 52, Placebo → 100 mg QD, Baseline Symptom Score ≥1, crossed-over subjects only): (34.3%)
Change from Baseline in PSSD Sign Score, LSMean (Week 52, Placebo → 100 mg QD): −43.1
Change from Baseline in PSSD Symptom Score, LSMean (Week 52, Placebo → 100 mg QD): −32.4
